Results: paper PMC10295546, “Synthesis, Cytotoxicity and Molecular Docking of New Hybrid Compounds by Combination of Curcumin with Oleanolic Acid” (Biomedicines, 2023)

Assays:
Type in all cases: cell-based, human
[1] = tested on: HeLaWT cells; assay: MTT cell viability assay, HeLaWT
Protocol: (§1) The assay was performed as previously described.

[2] = tested on: HT-29 cells; assay: MTT cell viability assay, HT-29; settings: for IC50: MTT
Protocol: as §1

[3] = tested on: MCF7 cells; assay: MTT cell viability assay, MCF7; settings: for IC50: MTT
Protocol: as §1

[4] = tested on: MCF-12A cells; assay: MTT cell viability assay, non-tumorigenic MCF-12A
Protocol: as §1

[5] = tested on: HeLaWT cells; assay: Cell cycle analysis (propidium iodide flow cytometry), HeLaWT
Protocol: (§2) To analyze the influence of the chosen compounds on the cell cycle, a flow cytometry analysis using propidium iodide was performed as previously described. The HT-29, MCF7 and HeLaWT cells (3 × 10^5 cells) were incubated overnight to reach sedimentation and then were treated with 0.5 and 1 × IC50 of KS1, KS2, KS5, KS6, KS7 and KS8, or Doxorubicin (positive control). Cell cycle analysis was performed after incubation for 24 h. Then, cells were harvested, washed twice with phosphate-buffered saline (PBS), and incubated with a solution of 1% saponin, 50 µg/mL propidium iodide and 10 mg/mL of RNase A (Sigma-Aldrich, Schnelldorf, Germany) in PBS for 1 h at 37 °C. DNA content was analyzed by flow cytometry at the […] wavelength of 488 nm using FACScan (Becton–Dickinson, Franklin Lakes, NJ, USA). The relative proportions of cells in the G1/G0, S and G2/M phases of the cell cycle were determined from the obtained data. Three separate experiments in triplicates were performed for each cell line.

[6] = tested on: HT-29 cells; assay: Cell cycle analysis (propidium iodide flow cytometry), HT-29
Protocol: as §2

[7] = tested on: MCF7 cells; assay: Cell cycle analysis (propidium iodide flow cytometry), MCF7; settings: MCF7, both applied concentrations (0.5 × IC50 and 1 × IC50), 24 h
Protocol: as §2

[8] = tested on: HeLaWT cells; assay: TUNEL assay, HeLaWT
Protocol: (§3) To determine the percentage of apoptotic cells, the TUNEL assay was performed as described elsewhere. TUNEL staining for the detection and quantification of apoptosis at the single-cell level was performed using an in situ cell death detection kit (Roche, Mannheim, Germany) according to the manufacturer’s protocol. Briefly, HT-29, HeLaWT and MCF7 cells (5 × 10^5/well) were seeded into 6-well plates and cultured overnight before exposure to different concentrations of tested compounds for 24 h. For TUNEL labeling, cells were harvested, fixed, permeabilized and labeled with the TUNEL reaction mixture (enzyme and label solutions) for 1 h at 37 °C in the dark. Negative controls were created by omitting the terminal deoxynucleotidyl enzyme and adding the same volume of the label solution. The cells were analyzed using a FACScan flow cytometer (Becton–Dickinson, Franklin Lakes, NJ, USA).

[9] = tested on: HT-29 cells; assay: TUNEL assay, HT-29; settings: HT-29, 1 × IC50, 24 h, non-statistically significant
Protocol: as §3

[10] = tested on: HeLaWT, HT-29, MCF7 and MCF-12A cells; assay: MTT cell viability assay, statement for all studied cells; settings: for IC50: Homo sapiens, all studied cells, applied concentration range, time not specified
Protocol: as §1

[11] = Homo sapiens, MCF-12A, 24 h, MTT
[12] = Homo sapiens, MCF-12A, 48 h, MTT
[13] = Homo sapiens, MCF-12A, 72 h, MTT
[14] = Homo sapiens, non-cancerous MCF-12A cells, applied concentration range, time not specified

## CC1(C)CCC2(C(=O)O)CCC3(C)C(=CCC4C5(C)CCC(OC(=O)CCC(=O)O)C(C)(C)C5CCC43C)C2C1 (stereo not drawn) [KS1, 4-{[(3 β )-28-hydroksy-28-oxoolean-12-en-3-yl]oxy}-4-oxobutanoic acid]
[1]; 24 h
  IC50: > 100 µM
[1]; 48 h
  IC50: > 100 µM
[1]; 72 h
  IC50: > 100 µM
[1]; summary of Table 1
  cytotoxic activity (in words): inactive
[2]; HT-29, 24 h
  IC50: > 100 µM
[2]; HT-29, 48 h
  IC50: > 100 µM
[2]; HT-29, 72 h
  IC50: > 100 µM
[2]; HT-29, MTT, summary of Table 1
  cytotoxic activity (in words): inactive
[3]; MCF7, 24 h
  IC50: > 100 µM
[3]; MCF7, 48 h
  IC50: 34.4 ± 2.2 µM
[3]; MCF7, 72 h
  IC50: 22.5 ± 0.9 µM
[3]; MCF7, MTT, summary of Table 1
  cytotoxic activity (in words): quite active
[4]; MCF-12A, 24 h, MTT
  IC50: > 100 µM
[4]; MCF-12A, 48 h, MTT
  IC50: 47.7 ± 2.1 µM
[4]; MCF-12A, 72 h, MTT
  IC50: 42.1 ± 1.9 µM

## COc1cc(/C=C/C(=O)CC(=O)/C=C/c2ccc(O)c(OC)c2)ccc1O [KS2, curcumin]
[1]; Homo sapiens, 24 h
  IC50: 57.2 ± 2.2 µM
[1]; Homo sapiens, 48 h
  IC50: 28.7 ± 1.1 µM
[1]; Homo sapiens, 72 h
  IC50: 16.2 ± 0.65 µM
[2]; Homo sapiens, HT-29, 24 h
  IC50: 25.2 ± 1.3 µM
[2]; Homo sapiens, HT-29, 48 h
  IC50: 13.9 ± 0.7 µM
[2]; Homo sapiens, HT-29, 72 h
  IC50: 11.1 ± 0.6 µM
[3]; Homo sapiens, MCF7, 24 h
  IC50: 15.6 ± 0.8 µM
[3]; Homo sapiens, MCF7, 48 h
  IC50: 14.6 ± 0.6 µM
[3]; Homo sapiens, MCF7, 72 h
  IC50: 7.5 ± 0.4 µM
[4]; [11]
  IC50: 75.6 ± 2.5 µM
[4]; [12]
  IC50: 46.4 ± 2 µM
[4]; [13]
  IC50: 42 ± 1.6 µM
[5]; 0.5 × IC50, 24 h
  effect on cell cycle phases: a decrease in the G0/G1 phase, and an increase in the G2/M phase
[5]; 1 × IC50, 24 h
  effect on cell cycle phases: a decrease in the number of cells in the G0/G1 phase
  increase of apoptotic cells (cell cycle analysis): up to 10%
[6]; HT-29, 24 h, in comparison to control untreated cells
  increase of apoptotic cells (cell cycle analysis): 7%
[6]; HT-29, both applied concentrations (0.5 × IC50 and 1 × IC50), 24 h
  effect on cell cycle phases: a decrease in the G0/G1 phase, and an increase in the G2/M phase
[7]
  effect on cell cycle phases: a decrease in the G0/G1 phase, and an increase in the G2/M phase
[8]; 0.5 × IC50, 24 h
  number of apoptotic cells (TUNEL): 30%
[8]; 1 × IC50, 24 h
  number of apoptotic cells (TUNEL): 80%
[9]
  increase of apoptosis (TUNEL): 10%

## COC(=O)C12CCC(C)(C)CC1C1=CCC3C4(C)CCC(OC(=O)CCC(=O)Oc5ccc(/C=C/C(O)=C/C(=O)/C=C/c6ccc(O)c(OC)c6)cc5OC)C(C)(C)C4CCC3(C)C1(C)CC2 (stereo not shown) [KS3, Curcumin mono-oleanoyl hydrogen succinate methyl ester]
[1]; Homo sapiens, 24 h
  IC50: > 100 µM
[1]; Homo sapiens, 48 h
  IC50: > 100 µM
[1]; Homo sapiens, 72 h
  IC50: > 100 µM
[2]; Homo sapiens, HT-29, 24 h
  IC50: > 100 µM
[2]; Homo sapiens, HT-29, 48 h
  IC50: > 100 µM
[2]; Homo sapiens, HT-29, 72 h
  IC50: > 100 µM
[3]; Homo sapiens, MCF7, 24 h
  IC50: > 100 µM
[3]; Homo sapiens, MCF7, 48 h
  IC50: > 100 µM
[3]; Homo sapiens, MCF7, 72 h
  IC50: > 100 µM
[4]; [11]
  IC50: > 100 µM
[4]; [12]
  IC50: > 100 µM
[4]; [13]
  IC50: > 100 µM
[4]; [14]
  IC50: > 100 µM
[10]
  IC50: > 100 µM

## COc1cc(/C=C/C(=O)/C=C(O)/C=C/c2ccc(OC(=O)CCC(=O)OC3CCC4(C)C(CCC5(C)C4CC=C4C6CC(C)(C)CCC6(C(=O)O)CCC45C)C3(C)C)c(OC)c2)ccc1O (stereo not shown) [KS4, Curcumin mono-oleanoyl hydrogen succinate]
[1]; Homo sapiens, 24 h
  IC50: > 100 µM
[1]; Homo sapiens, 48 h
  IC50: > 100 µM
[1]; Homo sapiens, 72 h
  IC50: > 100 µM
[2]; Homo sapiens, HT-29, 24 h
  IC50: > 100 µM
[2]; Homo sapiens, HT-29, 48 h
  IC50: > 100 µM
[2]; Homo sapiens, HT-29, 72 h
  IC50: > 100 µM
[3]; Homo sapiens, MCF7, 24 h
  IC50: > 100 µM
[3]; Homo sapiens, MCF7, 48 h
  IC50: > 100 µM
[3]; Homo sapiens, MCF7, 72 h
  IC50: > 100 µM
[4]; [11]
  IC50: > 100 µM
[4]; [12]
  IC50: > 100 µM
[4]; [13]
  IC50: > 100 µM
[4]; [14]
  IC50: > 100 µM
[10]
  IC50: > 100 µM

## COc1cc(/C=C/c2cc(/C=C/c3ccc(OC(=O)CCC(=O)OC4CCC5(C)C(CCC6(C)C5CC=C5C7CC(C)(C)CCC7(C(=O)O)CCC56C)C4(C)C)c(OC)c3)on2)ccc1O (stereo not shown) [KS5, Curcumin isoxazole mono-oleanoyl hydrogen succinate]
[1]; Homo sapiens, 24 h
  IC50: 70.1 ± 3.5 µM
[1]; Homo sapiens, 48 h
  IC50: 51.2 ± 2.5 µM
[1]; Homo sapiens, 72 h
  IC50: 27.3 ± 1.4 µM
[2]; Homo sapiens, HT-29, 24 h
  IC50: 29 ± 1.4 µM
[2]; Homo sapiens, HT-29, 48 h
  IC50: 23.2 ± 1.2 µM
[2]; Homo sapiens, HT-29, 72 h
  IC50: 21.5 ± 1.1 µM
[3]; Homo sapiens, MCF7, 24 h
  IC50: 80.8 ± 4 µM
[3]; Homo sapiens, MCF7, 48 h
  IC50: 45.6 ± 2.3 µM
[3]; Homo sapiens, MCF7, 72 h
  IC50: 37.8 ± 1.9 µM
[4]; [11]
  IC50: 83.2 ± 3.1 µM
[4]; [12]
  IC50: 68.7 ± 2.4 µM
[4]; [13]
  IC50: 49.9 ± 1.6 µM

## COc1cc(/C=C/c2cc(/C=C/c3ccc(OC(=O)CCC(=O)OC4CCC5(C)C(CCC6(C)C5CC=C5C7CC(C)(C)CCC7(C(=O)O)CCC56C)C4(C)C)c(OC)c3)[nH]n2)ccc1O (stereo not shown) [KS6, Curcumin pyrazole mono-oleanoyl hydrogen succinate]
[1]; Homo sapiens, 24 h
  IC50: 77.1 ± 3.8 µM
[1]; Homo sapiens, 48 h
  IC50: 45 ± 2.3 µM
[1]; Homo sapiens, 72 h
  IC50: 25.9 ± 1.3 µM
[2]; Homo sapiens, HT-29, 24 h
  IC50: 94.4 ± 4.7 µM
[2]; Homo sapiens, HT-29, 48 h
  IC50: 51.9 ± 2.6 µM
[2]; Homo sapiens, HT-29, 72 h
  IC50: 26 ± 1.3 µM
[3]; Homo sapiens, MCF7, 24 h
  IC50: 69.1 ± 3.4 µM
[3]; Homo sapiens, MCF7, 48 h
  IC50: 25.9 ± 1.3 µM
[3]; Homo sapiens, MCF7, 72 h
  IC50: 20.2 ± 1 µM
[4]; [11]
  IC50: > 100 µM
[4]; [12]
  IC50: 54.3 ± 2.7 µM
[4]; [13]
  IC50: 44.6 ± 1.9 µM

## COC(=O)C12CCC(C)(C)CC1C1=CCC3C4(C)CCC(OC(=O)CCC(=O)Oc5ccc(/C=C/c6cc(/C=C/c7ccc(O)c(OC)c7)no6)cc5OC)C(C)(C)C4CCC3(C)C1(C)CC2 (stereo not shown) [KS7, Curcumin isoxazole mono-oleanoyl hydrogen succinate methyl ester]
[1]; Homo sapiens, 24 h
  IC50: > 100 µM
[1]; Homo sapiens, 48 h
  IC50: > 100 µM
[1]; Homo sapiens, 72 h
  IC50: > 100 µM
[2]; Homo sapiens, HT-29, 24 h
  IC50: > 100 µM
[2]; Homo sapiens, HT-29, 48 h
  IC50: > 100 µM
[2]; Homo sapiens, HT-29, 72 h
  IC50: > 100 µM
[3]; Homo sapiens, MCF7, 24 h
  IC50: > 100 µM
[3]; Homo sapiens, MCF7, 48 h
  IC50: > 100 µM
[3]; Homo sapiens, MCF7, 72 h
  IC50: > 100 µM
[4]; [11]
  IC50: > 100 µM
[4]; [12]
  IC50: > 100 µM
[4]; [13]
  IC50: > 100 µM
[4]; [14]
  IC50: > 100 µM
[10]
  IC50: > 100 µM
[10]; all cell lines, MTT, summary of Table 1
  cytotoxic activity (in words): inactive

## COC(=O)C12CCC(C)(C)CC1C1=CCC3C4(C)CCC(OC(=O)CCC(=O)Oc5ccc(/C=C/c6cc(/C=C/c7ccc(O)c(OC)c7)n[nH]6)cc5OC)C(C)(C)C4CCC3(C)C1(C)CC2 (stereo not shown) [KS8, Curcumin pyrazole mono-oleanoyl hydrogen succinate methyl ester]
[1]; Homo sapiens, 24 h
  IC50: 53.4 ± 2.7 µM
[1]; Homo sapiens, 48 h
  IC50: 36.9 ± 1.8 µM
[1]; Homo sapiens, 72 h
  IC50: 25.6 ± 1.2 µM
[2]; Homo sapiens, HT-29, 24 h
  IC50: 20.6 ± 1 µM
[2]; Homo sapiens, HT-29, 48 h
  IC50: 17.9 ± 0.9 µM
[2]; Homo sapiens, HT-29, 72 h
  IC50: 17.3 ± 0.9 µM
[3]; Homo sapiens, MCF7, 24 h
  IC50: 44.3 ± 2.2 µM
[3]; Homo sapiens, MCF7, 48 h
  IC50: 33.2 ± 1.7 µM
[3]; Homo sapiens, MCF7, 72 h
  IC50: 29.9 ± 1.5 µM
[4]; [11]
  IC50: 62.7 ± 3.1 µM
[4]; [12]
  IC50: 43.4 ± 2.2 µM
[4]; [13]
  IC50: 42.3 ± 2.5 µM
